Measurements as given in BindingDB's records for doi:10.1021/jm030084x (University of Illinois At Urbana-Champaign, 2003).

Biological target: farnesyl diphosphate synthase (Leishmania major)
Experiment: Inhibitory activity against Leishmania major Farnesyl-diphosphatesynthase (FPP synthase)

| IC50 | SMILES |
| --- | --- |
| > 100 µM | Cc1cc(C)nc(NC(P(=O)(O)O)P(=O)(O)O)c1 [(4,6-dimethyl-2-pyridinyl)-aminomethylene-1,1-bisphosphonate] |
| > 100 µM | O=P(O)(O)C(Nc1ccc(Cl)nc1)P(=O)(O)O [[(6-Chloro-pyridin-3-ylamino)-phosphono-methyl]-phosphonic acid] |
